Experiments:
[1] = test system: metastatic renal cell carcinoma (mRCC); assay: CABOSUN (ALLIANCE A031203) trial, cabozantinib vs sunitinib as initial targeted therapy
Protocol: Pts were randomized 1:1 to receive Cabo (60 mg QD) or Sun (50 mg QD, 4 weeks on/2 weeks off). Pts were stratified by the IMDC risk groups (intermediate vs. poor risk) and bone metastasis (yes, no). […] Secondary endpoints included OS, investigator-assessed overall response rate (ORR), and toxicity. The Kaplan-Meier product-limit estimator was used to estimate the OS between treatment arms.

patients = assay: Cabozantinib clinical program: serious events and overdosage case; type: in vivo, human
[2] = Clinical pharmacokinetics of cabozantinib (absorption, distribution, elimination); type: in vivo, human
Source text: […]; steady state was achieved by Day 15.

[3] = Excretion after single 140 mg 14C-cabozantinib dose in healthy subjects; type: in vivo, human
Protocol: Approximately 81% of the total administered radioactivity was recovered within a 48-day collection period following a single 140 mg dose of an investigational ^14C-cabozantinib formulation in healthy subjects. Approximately 54% was recovered in feces and 27% in urine.

VEGFR-3 = VEGFR-3 (Homo sapiens, UniProt P35916); assay: In vitro biochemical and/or cellular kinase assays
Chain of VEGFR-3 (P35916 25-1363): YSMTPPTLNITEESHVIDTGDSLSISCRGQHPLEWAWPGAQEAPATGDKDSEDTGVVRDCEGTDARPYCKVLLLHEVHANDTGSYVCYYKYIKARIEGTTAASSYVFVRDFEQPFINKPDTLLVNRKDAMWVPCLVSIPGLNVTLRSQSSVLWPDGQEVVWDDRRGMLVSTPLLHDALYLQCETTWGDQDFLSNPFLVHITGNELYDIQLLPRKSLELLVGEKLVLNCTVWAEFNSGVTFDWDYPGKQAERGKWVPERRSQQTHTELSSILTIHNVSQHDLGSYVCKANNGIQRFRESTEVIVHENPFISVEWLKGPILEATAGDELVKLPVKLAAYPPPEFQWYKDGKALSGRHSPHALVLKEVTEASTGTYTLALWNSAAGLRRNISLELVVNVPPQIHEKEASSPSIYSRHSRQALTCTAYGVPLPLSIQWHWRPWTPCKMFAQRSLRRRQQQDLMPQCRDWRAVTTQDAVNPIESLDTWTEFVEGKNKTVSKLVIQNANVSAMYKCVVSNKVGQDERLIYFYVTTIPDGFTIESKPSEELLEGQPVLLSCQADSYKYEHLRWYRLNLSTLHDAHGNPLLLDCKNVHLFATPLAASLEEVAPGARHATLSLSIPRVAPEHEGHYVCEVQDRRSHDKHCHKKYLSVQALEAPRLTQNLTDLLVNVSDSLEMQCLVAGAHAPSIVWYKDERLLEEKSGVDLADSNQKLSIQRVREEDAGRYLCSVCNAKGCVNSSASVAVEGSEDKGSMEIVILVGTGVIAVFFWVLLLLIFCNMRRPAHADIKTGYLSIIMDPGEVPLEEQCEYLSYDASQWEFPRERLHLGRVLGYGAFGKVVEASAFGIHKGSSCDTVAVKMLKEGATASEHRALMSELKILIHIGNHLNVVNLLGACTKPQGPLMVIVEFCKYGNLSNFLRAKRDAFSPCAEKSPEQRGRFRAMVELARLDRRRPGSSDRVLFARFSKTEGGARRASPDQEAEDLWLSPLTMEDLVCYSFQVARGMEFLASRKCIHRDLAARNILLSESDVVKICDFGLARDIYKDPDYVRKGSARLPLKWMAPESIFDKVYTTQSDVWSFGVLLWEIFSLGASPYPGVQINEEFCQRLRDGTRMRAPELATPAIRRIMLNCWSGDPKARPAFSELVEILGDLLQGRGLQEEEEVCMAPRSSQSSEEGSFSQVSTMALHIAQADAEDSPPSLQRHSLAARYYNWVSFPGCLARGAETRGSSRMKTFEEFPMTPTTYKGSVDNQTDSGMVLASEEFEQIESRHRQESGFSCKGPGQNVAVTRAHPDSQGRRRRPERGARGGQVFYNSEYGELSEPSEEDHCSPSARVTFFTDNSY

AXL = AXL (Homo sapiens, UniProt P30530); assay: In vitro biochemical and/or cellular kinase assays
Chain of AXL (P30530 26-894): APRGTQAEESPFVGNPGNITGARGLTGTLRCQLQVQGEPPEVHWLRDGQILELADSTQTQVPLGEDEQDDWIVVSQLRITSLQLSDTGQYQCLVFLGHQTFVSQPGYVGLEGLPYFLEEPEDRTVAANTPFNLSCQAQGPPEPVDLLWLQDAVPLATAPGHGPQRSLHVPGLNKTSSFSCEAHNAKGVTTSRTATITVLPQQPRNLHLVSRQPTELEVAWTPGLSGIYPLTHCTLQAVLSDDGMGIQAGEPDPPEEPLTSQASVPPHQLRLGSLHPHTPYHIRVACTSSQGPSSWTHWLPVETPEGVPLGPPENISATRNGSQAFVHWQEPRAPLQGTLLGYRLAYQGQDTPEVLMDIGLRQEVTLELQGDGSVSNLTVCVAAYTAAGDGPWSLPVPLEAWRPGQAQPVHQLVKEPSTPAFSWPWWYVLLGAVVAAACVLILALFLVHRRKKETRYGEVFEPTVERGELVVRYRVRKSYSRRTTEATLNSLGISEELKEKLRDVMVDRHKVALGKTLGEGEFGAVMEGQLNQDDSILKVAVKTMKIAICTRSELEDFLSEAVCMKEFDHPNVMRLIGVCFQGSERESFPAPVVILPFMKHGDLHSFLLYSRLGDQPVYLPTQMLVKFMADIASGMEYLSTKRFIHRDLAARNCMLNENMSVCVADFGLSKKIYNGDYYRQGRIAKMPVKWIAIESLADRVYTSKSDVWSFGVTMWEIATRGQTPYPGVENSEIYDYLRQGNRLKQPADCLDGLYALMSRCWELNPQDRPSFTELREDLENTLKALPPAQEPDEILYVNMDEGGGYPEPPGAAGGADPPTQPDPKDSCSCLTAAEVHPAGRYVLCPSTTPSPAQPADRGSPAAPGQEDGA

ROS1 = ROS1 (Homo sapiens, UniProt P08922); assay: In vitro biochemical and/or cellular kinase assays
TRKB = TRKB (Homo sapiens, UniProt Q16620); assay: In vitro biochemical and/or cellular kinase assays
CYP2B6 = CYP2B6 (Homo sapiens, UniProt P20813); assay: Metabolic pathways in vitro: effect of CYP inhibition on cabozantinib metabolite formation; type: in vitro ADME
Chain of CYP2B6 (P20813 whole entry): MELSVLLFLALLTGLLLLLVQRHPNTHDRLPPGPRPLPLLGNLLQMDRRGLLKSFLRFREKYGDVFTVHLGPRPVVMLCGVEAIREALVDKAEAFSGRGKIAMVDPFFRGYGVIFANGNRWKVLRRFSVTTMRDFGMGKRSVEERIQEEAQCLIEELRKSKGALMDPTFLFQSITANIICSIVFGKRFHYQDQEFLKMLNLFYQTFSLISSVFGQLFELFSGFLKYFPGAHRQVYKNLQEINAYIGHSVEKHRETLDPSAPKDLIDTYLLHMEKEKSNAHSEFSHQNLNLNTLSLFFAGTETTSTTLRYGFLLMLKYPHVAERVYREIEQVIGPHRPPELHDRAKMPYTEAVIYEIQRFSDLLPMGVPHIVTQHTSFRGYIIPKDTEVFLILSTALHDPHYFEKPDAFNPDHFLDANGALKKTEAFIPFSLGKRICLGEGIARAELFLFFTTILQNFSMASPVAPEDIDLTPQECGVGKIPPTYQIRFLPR

CYP2D6 = CYP2D6 (Homo sapiens, UniProt P10635); assay: as above; type: in vitro ADME
Chain of CYP2D6 (P10635 whole entry): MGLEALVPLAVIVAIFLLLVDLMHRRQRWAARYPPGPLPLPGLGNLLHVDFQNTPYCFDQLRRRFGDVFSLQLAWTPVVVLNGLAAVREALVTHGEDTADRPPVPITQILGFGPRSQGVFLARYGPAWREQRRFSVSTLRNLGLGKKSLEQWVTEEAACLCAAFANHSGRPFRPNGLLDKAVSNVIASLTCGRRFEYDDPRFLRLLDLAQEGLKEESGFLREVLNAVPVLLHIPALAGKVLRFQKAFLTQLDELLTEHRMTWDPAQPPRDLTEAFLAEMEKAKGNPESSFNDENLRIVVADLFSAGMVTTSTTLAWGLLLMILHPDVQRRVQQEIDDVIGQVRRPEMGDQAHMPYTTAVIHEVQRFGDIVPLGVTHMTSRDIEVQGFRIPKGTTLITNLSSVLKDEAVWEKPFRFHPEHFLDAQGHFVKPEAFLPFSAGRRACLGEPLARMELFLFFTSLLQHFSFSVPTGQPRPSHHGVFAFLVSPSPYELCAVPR

CYP2E1 = CYP2E1 (Homo sapiens, UniProt P05181); assay: as above; type: in vitro ADME
CYP2C8 = CYP2C8 (Homo sapiens, UniProt P10632); assay: In vitro CYP inhibition by cabozantinib; type: in vitro ADME
Chain of CYP2C8 (P10632 whole entry): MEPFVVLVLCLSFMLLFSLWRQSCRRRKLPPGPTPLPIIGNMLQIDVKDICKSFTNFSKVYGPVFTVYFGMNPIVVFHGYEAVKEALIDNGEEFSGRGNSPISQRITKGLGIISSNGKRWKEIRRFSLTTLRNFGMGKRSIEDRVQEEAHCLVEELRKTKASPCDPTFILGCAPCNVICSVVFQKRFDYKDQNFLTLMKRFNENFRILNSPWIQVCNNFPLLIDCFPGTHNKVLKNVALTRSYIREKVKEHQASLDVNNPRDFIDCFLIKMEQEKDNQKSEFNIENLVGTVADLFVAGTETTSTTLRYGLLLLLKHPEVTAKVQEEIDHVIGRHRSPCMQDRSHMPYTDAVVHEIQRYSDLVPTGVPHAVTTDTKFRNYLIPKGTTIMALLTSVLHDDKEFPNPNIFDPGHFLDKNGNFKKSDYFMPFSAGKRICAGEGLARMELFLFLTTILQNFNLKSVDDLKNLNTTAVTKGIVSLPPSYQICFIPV

CYP1A1 mRNA = assay: In vitro CYP induction by cabozantinib; type: in vitro ADME
P-gp = P-gp (Homo sapiens, UniProt P08183); assay: Drug transporter systems in vitro; type: in vitro ADME
Chain of P-gp (P08183 whole entry): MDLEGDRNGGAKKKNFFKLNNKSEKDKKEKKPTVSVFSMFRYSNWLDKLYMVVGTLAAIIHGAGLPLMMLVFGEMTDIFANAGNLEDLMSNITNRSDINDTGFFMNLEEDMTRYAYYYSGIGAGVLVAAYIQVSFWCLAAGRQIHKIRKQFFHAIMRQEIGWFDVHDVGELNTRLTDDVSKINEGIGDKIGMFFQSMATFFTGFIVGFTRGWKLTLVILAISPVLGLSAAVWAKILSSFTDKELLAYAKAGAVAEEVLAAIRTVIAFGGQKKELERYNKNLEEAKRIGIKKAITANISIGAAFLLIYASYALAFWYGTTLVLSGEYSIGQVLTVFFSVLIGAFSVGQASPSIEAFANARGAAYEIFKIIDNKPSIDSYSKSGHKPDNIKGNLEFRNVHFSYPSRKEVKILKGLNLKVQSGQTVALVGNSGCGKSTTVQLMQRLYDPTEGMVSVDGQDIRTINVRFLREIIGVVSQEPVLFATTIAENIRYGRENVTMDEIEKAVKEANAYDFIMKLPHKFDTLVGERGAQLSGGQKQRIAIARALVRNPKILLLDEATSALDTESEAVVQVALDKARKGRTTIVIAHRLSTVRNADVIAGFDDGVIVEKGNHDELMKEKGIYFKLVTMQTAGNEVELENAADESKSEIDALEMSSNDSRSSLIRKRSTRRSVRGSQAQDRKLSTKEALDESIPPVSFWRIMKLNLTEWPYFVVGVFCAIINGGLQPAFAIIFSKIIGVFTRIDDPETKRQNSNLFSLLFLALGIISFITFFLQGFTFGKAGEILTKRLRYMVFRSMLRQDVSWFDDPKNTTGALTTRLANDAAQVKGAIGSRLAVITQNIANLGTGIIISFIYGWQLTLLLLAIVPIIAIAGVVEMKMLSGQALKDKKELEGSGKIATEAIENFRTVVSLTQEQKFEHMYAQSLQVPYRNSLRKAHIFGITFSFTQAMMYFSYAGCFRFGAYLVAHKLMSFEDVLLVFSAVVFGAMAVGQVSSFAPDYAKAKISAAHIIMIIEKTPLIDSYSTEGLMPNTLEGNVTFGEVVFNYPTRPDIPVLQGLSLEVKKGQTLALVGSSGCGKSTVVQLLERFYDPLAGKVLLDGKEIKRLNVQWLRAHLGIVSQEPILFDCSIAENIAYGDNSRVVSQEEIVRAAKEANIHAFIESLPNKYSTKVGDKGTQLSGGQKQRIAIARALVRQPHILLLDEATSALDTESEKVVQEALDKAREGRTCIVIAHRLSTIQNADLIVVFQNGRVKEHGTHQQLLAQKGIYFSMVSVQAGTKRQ

MRP2 = MRP2 (Homo sapiens, UniProt Q92887); assay: Drug transporter systems in vitro; type: in vitro ADME
pregnant rabbits = assay: Embryo-fetal development study in pregnant rabbits; type: in vivo, rabbit; conditions: daily oral administration throughout organogenesis
juvenile rats = assay: Juvenile rat toxicity study; type: in vivo
Protocol: […]. Mortalities occurred at doses equal and greater than 1 mg/kg/day (approximately 0.16 times the clinical dose of 60 mg/day based on body surface area).

[4] = Population pharmacokinetic (PopPK) model (RCC patients and healthy volunteers); type: in vivo, human
Protocol: The PopPK model was developed using nonlinear mixed effects modeling methodology (NONMEM v7.3) that incorporated 1650 measurable PK concentrations from 345 subjects (Table 10.1).
Covariates were evaluated for effects on apparent plasma clearance (CL/F) and apparent volume of distribution of the central compartment (VF) (Table 10.2).
In FIG. 10.1: • F1=fraction of dose in the first depot; • F2=fraction of dose in the second depot; • Ka=depot 1 absorption rate constant • Ka2=depot 2 absorption rate constant; • ALAG1=depot 1 absorption lag time; • ALAG2=depot 2 absorption lag time • Vc/F=apparent volume of distribution (central compartment); • Vp/F=apparent volume of distribution (peripheral compartment); • Q/F=apparent flow between plasma (central) and peripheral compartments; • CL/F=apparent plasma clearance

QTc interval = conditions: human, in vivo
male and female rats = conditions: rat, in vivo
human lymphocytes = assay: In vitro cytogenetic assay
[5] = test system: female rats and offspring; assay: Pre- and postnatal study in rats; conditions: oral, gestation day 10 through postnatal day 20
bacteria = assay: Bacterial reverse mutation (Ames) assay; conditions: in vitro
pregnant rats = assay: Embryo-fetal development study in pregnant rats
[6] = test system: advanced renal cell carcinoma; conditions: nivolumab study; cited from earlier work
[7] = final PopPK model parameter estimate
[8] = final PopPK model parameter estimate, RCC patients and healthy volunteers

COc1cc2nccc(Oc3ccc(NC(=O)C4(C(=O)Nc5ccc(F)cc5)CC4)cc3)c2cc1OC [cabozantinib]
Diarrhea, grade 3 or 4 ([1]; all-causality): 10% | Fatigue, grade 3 or 4 ([1]; all-causality): 6% | Hematologic adverse events, grade 3 or 4 ([1]; all-causality): 3% | Hypertension, grade 3 or 4 ([1]; all-causality): 28% | Palmar-plantar erythrodysesthesia, grade 3 or 4 ([1]; all-causality): 8% | All-causality grade 3 or 4 adverse events ([1]; in vivo): 67% | Median OS ([1]; in vivo): 30.3 months | ORR ([1]; in vivo): 46% | OS adjusted HR, cabozantinib vs sunitinib ([1]; in vivo): 0.80 | Reduction in rate of progression or death vs sunitinib ([1]; in vivo): 34% | Median PFS ([1]; untreated mRCC, intermediate or poor risk): 8.2 months | Fatal hemorrhages (patients; human, in vivo): Fatal hemorrhages also occurred | Fatal perforations (patients; human, in vivo): Fatal perforations occurred | Fatal thrombotic events (patients; human, in vivo): Fatal thrombotic events occurred | Reversible Posterior Leukoencephalopathy Syndrome (RPLS) (patients; human, in vivo): occurred | Overdosage case findings (patients; twice the intended dose (200 mg daily) of another formulation for nine days): Grade 3 memory impairment, Grade 3 mental status changes, Grade 3 cognitive disturbance, Grade 2 weight loss, and Grade 1 increase in BUN | Effect of age, sex, race, mild to moderate renal impairment on pharmacokinetics ([2]; age 32-86 years, eGFR ≥30 mL/min/1.73 m^2): did not result in a clinically relevant difference | Clearance (CL/F) at steady-state ([2]; human, in vivo): 2.2 L/h | Predicted terminal half-life ([2]; human, in vivo): approximately 99 hours | Tmax ([2]; human, plasma, oral administration, read-out: Median time to peak plasma concentration (Tmax)): 2 to 3 h | Steady state achieved by ([2]; repeat daily dosing at 140 mg): ≤ 15 days | Radioactivity recovered in feces ([3]; 48-day collection): Approximately 54% | Radioactivity recovered in urine ([3]; 48-day collection): ~27% | Unchanged cabozantinib in urine ([3]; 72 hour collection): not detectable | Unchanged cabozantinib, share of total radioactivity in feces ([3]; 72 hour collection): 43% | Total administered radioactivity recovered ([3]; within a 48-day collection period, single 140 mg dose): Approximately 81% | Inhibition of tyrosine kinase activity (VEGFR-3): inhibits | Inhibition of tyrosine kinase activity (AXL): inhibits | Inhibition of tyrosine kinase activity (ROS1): inhibits | Inhibition of tyrosine kinase activity (TRKB): inhibits | Effect of inhibition of CYP2B6 on cabozantinib metabolite formation (CYP2B6): no effect | Effect of inhibition of CYP2D6 on cabozantinib metabolite formation (CYP2D6): no effect | Effect of inhibition of CYP2E1 on cabozantinib metabolite formation (CYP2E1): no effect | Inhibition of CYP2C8 in vitro (CYP2C8): inhibitor | Induction of CYP1A1 mRNA (CYP1A1 mRNA): inducer | Inhibition of P-gp transport activities (P-gp): inhibitor | P-gp substrate status (P-gp): not a substrate | MRP2 substrate status in vitro (MRP2): substrate | Dose with visceral malformations and variations (reduced spleen size, missing lung lobe) (pregnant rabbits): 3 mg/kg | Mortality dose as multiple of the clinical dose of 60 mg/day based on body surface area (juvenile rats; 1 mg/kg/day): approximately 0.16 times | Doses at which mortalities occurred (juvenile rats; Postnatal Day 12 through 35 or 70): ≥ 1 mg/kg/day | Predicted steady-state average concentration ([4]; 20 mg dose level): 375 ng/mL | Predicted steady-state average concentration ([4]; 40 mg dose level): 750 ng/mL | Predicted steady-state average concentration ([4]; 60 mg dose level): 1125 ng/mL | CL/F (oral clearance), PopPK estimate ([4]; White male): 2.23 L/h | Vc/F, PopPK estimate ([4]; White male): 81.5 L | ALAG1 (depot 1 absorption lag time) [4, 7]: 0.459 h | ALAG2 (depot 2 absorption lag time) [4, 7]: 16.8 h | Q/F (apparent flow between plasma (central) and peripheral compartments) [4, 7]: 14.2 L/h | Vp/F (apparent volume of distribution, peripheral compartment) [4, 7]: 213 L | Ka2 (depot 2 absorption rate constant) [4, 8]: 0.102 h⁻¹ | Ka (depot 1 absorption rate constant) [4, 8]: 0.568 h⁻¹ | CL/F (apparent plasma clearance) ([4]; final PopPK model parameter estimate, White male): 2.23 L/h | Inter-individual variability of CL/F ([4]; human, in vivo): 46 % CV | Lower CL/F in Asian vs White subjects ([4]; human, in vivo): 27% | Lower CL/F in female vs male subjects ([4]; human, in vivo): 21% | Vd/F ([4]; human, plasma, oral, final PopPK model parameter estimate, White male, read-out: Vc/F (apparent volume of distribution, central compartment)): 81.5 L | Vd ([4]; human, plasma, oral, subject, read-out: Terminal phase volume of distribution, PopPK estimate): 319 L | Changes in cardiac wave form morphology or new rhythms (QTc interval): not observed | Doses at which female fertility was significantly reduced (male and female rats; female): ≥ 1 mg/kg/day | Doses at which male fertility was significantly compromised (male and female rats; male): ≥ 2.5 mg/kg/day | Clastogenicity (human lymphocytes): not clastogenic | Doses without adverse maternal toxicity or effect on pregnancy, parturition, lactation, offspring survival, growth or postnatal development [5]: up to 0.3 mg/kg/day | Mutagenicity (bacteria): not mutagenic | Dose causing increased embryo-fetal lethality compared to controls (pregnant rats; daily oral administration throughout organogenesis): 0.03 mg/kg | Dose with delayed ossification and skeletal variations (pregnant rats; female, rat, in vivo, 0.1 mg/kg/day): 0.1 mg/kg/day

CO[C@H]1C[C@@H]2CC[C@@H](C)[C@@](O)(O2)C(=O)C(=O)N2CCCC[C@H]2C(=O)O[C@H]([C@H](C)C[C@@H]2CC[C@@H](OCCO)[C@H](OC)C2)CC(=O)[C@H](C)/C=C(\C)[C@@H](O)[C@@H](OC)C(=O)[C@H](C)C[C@H](C)/C=C/C=C/C=C/1C [everolimus]
Median OS of comparator arm [6]: 19.6 months | Median PFS of control arm [6]: 4.4 months
